Laboratory results as given in patent US20240423981A1, “TREATMENT OF HCM WITH PYRIMIDINEDIONE COMPOUNDS” (MyoKardia, Inc., priority 2017, published 2024).
Entries after “also recorded” stand apart in the source; their conditions may differ.

Tests used:
[1] = test system: healthy adult subjects; test: Study Compound 1-003: multiple ascending-dose (MAD) trial in healthy volunteers; type: in vivo, human
Protocol: (§1) Three clinical studies have investigated the safety and tolerability of Compound 1 to date; conduct of 2 studies has completed and 1 study is ongoing. A double-blind, placebo-controlled, single ascending-dose study (SAD) (Compound 1-002) was conducted in healthy men. Subjects received single doses ranging from 1 mg to 48 mg. Conduct of an open-label sequential-group SAD study in subjects with clinically stable HCM (Compound 1-001) is also complete; single doses of up to 144 mg were administered. In addition, a double-blind, placebo-controlled, multiple ascending-dose (MAD) study (Compound 1-003) is being conducted in which healthy adult subjects have received multiple doses of Compound 1 up to 25 mg once daily (QD) for up to 28 days.
In Study Compound 1-003, 4 cohorts of healthy adult subjects have been dosed, each scheduled to dose for 28 days. […] In cohort 3, 3 of 12 subjects who received blinded treatment (either Compound 1 12.5 mg or placebo QD) had diarrhea and/or abdominal cramps. One of these subjects was discontinued due to recurrence of diarrhea upon rechallenge, and the other 2 subjects were successfully restarted on study medication. The investigator considered these gastrointestinal AEs either mild or moderate in severity and likely related to study medication.
Dosing in cohort 4 was stopped on Day 25 by the investigator, because 5 of 12 subjects who received blinded treatment (either Compound 1 25 mg or placebo QD) achieved the predefined stopping criterion for dose ascension of ≥20% reduction in LVEF. All subjects remained asymptomatic.

[2] = test system: subjects with symptomatic HCM and LVOT obstruction; test: Phase 2 open-label pilot study Pioneer-HCM-A (Cohort A); type: in vivo, human; conditions: for Lateral e′ Week 12: baseline 6.9 ± 1.9; for E/e′ Week 12: baseline 12.9 ± 3.3
Excerpt: This is a phase 2 open-label pilot study to evaluate the efficacy, PK, PD, safety, and tolerability of Compound 1 in subjects with symptomatic HCM and LVOT obstruction. Approximately 10 adult subjects with symptomatic HCM, a resting LVOT gradient ≥30 mm Hg, and post-exercise peak LVOT gradient ≥50 mm Hg will be enrolled. The study will have a 12-week treatment phase and a 4-week washout phase (FIG. 3).
At Screening, subjects will undergo transthoracic echocardiography (TTE) in the supine or left lateral decubitus position. In addition to a standardized complete TTE, both resting instantaneous peak LVOT gradient (baseline) and provoked peak LVOT gradient will be collected. Subjects will then undergo a standard symptom-limited exercise test (hemodynamic stress echocardiography). Subjects will be assessed systematically for symptoms of dyspnea and/or angina. Instantaneous peak LVOT gradient will be assessed immediately post-exercise by TTE.
On Day 1, resting TTE will be performed, blood samples will be drawn for PK, and subjects will have an assessment of pVO2, VE/VCO2, and other variables via cardiopulmonary exercise testing (CPET). After CPET, subjects will be dosed with open-label oral Compound 1 at the investigational site and will be observed for at least 1 hour after dosing, with assessment of vital signs and ECGs at 1 hour postdose. Subjects will then be supplied with Compound 1 sufficient for QD dosing at home.
Subjects will be evaluated at the investigational site at Weeks 1, 2, 3, 4, 5, 6, 7, 8, 12, and 16. At each of these visits, resting TTE will be performed and blood samples will be drawn for PK. On study visit days, study medication will be administered at the investigational site in order to collect blood samples for PK about 2 hours prior to dosing. At Weeks 4, 12, and 16, hemodynamic stress echocardiography will be performed and peak LVOT gradient will be assessed. CPET will be conducted between Weeks 10 and 12 (inclusive).
The Compound 1 starting dose will be 10 mg for subjects who weigh […] 60 kg and 15 mg for subjects who weigh >60 kg. At the end of Week 4 (Day 28), each subject's LVEF will be evaluated, and the subject's dose may be increased, decreased, or remain unchanged based on the predetermined criteria in Table 6, in consultation between the investigator and the medical monitor. If Compound 1 plasma concentration exceeds 750 ng/mL at Week 2, no dose increase is allowed, regardless of LVEF data at Week 4; however, dose decrease per LVEF data is allowed in this circumstance. The subject will subsequently receive that dose from Week 5 through Week 12.
The following results were obtained generally following the procedures described in Example 3. Each subject in the following trials discontinued β-blocker, calcium-channel blocker, and/or disopyramide therapy at least 14 days prior to the screening visit.

[3] = target: smooth muscle myosin (Homo sapiens, UniProt P35749); test: Biochemical activity against smooth muscle myosin
smooth muscle myosin, sequence (P35749 whole entry): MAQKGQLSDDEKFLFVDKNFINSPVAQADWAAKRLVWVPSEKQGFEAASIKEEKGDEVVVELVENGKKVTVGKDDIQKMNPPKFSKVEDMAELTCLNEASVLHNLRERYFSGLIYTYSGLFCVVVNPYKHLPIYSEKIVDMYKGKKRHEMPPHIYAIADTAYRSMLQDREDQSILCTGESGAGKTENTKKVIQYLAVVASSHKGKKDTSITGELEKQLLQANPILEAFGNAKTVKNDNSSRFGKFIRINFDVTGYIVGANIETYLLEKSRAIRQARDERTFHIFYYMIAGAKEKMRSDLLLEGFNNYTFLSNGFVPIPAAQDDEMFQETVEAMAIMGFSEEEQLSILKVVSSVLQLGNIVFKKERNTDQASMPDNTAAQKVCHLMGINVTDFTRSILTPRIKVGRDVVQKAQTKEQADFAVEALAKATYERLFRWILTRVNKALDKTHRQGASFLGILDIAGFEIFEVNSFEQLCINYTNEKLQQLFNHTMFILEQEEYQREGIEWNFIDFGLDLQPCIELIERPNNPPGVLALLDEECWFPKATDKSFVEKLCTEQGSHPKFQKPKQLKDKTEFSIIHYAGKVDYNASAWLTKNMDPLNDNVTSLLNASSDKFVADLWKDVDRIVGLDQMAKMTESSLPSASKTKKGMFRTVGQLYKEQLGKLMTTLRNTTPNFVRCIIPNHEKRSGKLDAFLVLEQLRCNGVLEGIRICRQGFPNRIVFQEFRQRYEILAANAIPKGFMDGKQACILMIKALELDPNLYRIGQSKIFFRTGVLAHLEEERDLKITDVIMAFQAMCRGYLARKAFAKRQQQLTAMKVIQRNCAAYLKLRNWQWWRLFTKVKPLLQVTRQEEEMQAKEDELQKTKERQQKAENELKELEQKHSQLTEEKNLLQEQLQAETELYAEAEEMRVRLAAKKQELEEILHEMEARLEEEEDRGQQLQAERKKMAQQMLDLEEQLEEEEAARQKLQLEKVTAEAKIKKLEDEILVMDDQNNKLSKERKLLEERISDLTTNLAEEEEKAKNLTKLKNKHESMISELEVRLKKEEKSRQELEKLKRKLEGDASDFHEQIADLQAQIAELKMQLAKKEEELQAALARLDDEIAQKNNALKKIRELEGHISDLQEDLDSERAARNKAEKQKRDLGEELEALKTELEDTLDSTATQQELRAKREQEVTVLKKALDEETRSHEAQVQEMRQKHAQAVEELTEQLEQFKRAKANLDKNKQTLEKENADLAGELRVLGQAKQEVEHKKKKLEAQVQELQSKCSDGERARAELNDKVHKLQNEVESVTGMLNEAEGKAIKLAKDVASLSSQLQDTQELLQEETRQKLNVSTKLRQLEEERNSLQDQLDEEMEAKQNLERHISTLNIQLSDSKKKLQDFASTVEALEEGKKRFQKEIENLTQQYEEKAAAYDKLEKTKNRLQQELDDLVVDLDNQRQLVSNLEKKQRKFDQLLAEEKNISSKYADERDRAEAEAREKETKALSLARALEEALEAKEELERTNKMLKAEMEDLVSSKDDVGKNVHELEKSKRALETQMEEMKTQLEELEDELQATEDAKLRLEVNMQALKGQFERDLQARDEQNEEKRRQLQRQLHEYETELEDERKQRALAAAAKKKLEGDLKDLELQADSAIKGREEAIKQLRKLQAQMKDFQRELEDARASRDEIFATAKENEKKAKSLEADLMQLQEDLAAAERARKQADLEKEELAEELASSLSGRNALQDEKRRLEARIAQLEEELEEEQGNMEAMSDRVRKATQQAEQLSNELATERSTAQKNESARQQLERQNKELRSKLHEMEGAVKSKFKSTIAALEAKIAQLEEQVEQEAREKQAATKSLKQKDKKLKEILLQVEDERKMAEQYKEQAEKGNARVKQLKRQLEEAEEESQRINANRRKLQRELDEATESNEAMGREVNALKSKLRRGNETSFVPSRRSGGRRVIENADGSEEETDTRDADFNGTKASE
smooth muscle myosin, sequence (P60660 whole entry partner): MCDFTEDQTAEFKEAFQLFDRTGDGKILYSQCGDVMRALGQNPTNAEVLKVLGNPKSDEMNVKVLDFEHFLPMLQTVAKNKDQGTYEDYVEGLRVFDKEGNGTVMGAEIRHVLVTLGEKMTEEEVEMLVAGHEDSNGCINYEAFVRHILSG
smooth muscle myosin, sequence (P24844 whole entry partner): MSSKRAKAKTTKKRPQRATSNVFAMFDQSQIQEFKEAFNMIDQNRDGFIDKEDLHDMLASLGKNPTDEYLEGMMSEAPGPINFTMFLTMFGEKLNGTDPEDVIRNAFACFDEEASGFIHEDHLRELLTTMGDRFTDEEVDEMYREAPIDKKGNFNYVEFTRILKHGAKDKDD

[4] = test system: healthy volunteers and HCM patients; test: Phase 1 program summary (three Phase 1 studies); type: in vivo, human
Protocol: as §1

[5] = 12.5 mg cohort, 28-day treatment
[6] = 25 mg cohort treated for 25 days
[7] = Cohort A (10-15 mg/day), N = 10, mean ± SD
[8] = Cohort A, baseline to Week 12, n 10

For `CC(C)n1c(=O)cc(N[C@@H](C)c2ccccc2)[nH]c1=O` [Compound 1, (S)-3-Isopropyl-6-((1-phenylethyl)amino) pyrimidine-2, 4(1H,3H)-dione], the “PD evidence of reduced contractility” value ([1]; 12.5 mg QD and 25 mg QD groups) was “PD evidence of reduced contractility was apparent”, the Responders % [1, 5] was 30% and the Responders n [1, 5] was 3/10. For the same compound, the Responders n ([1]; 18.5 mg cohort, 28-day treatment) was 10/10, the Responders % [1, 6] was 100% and the Responders n [1, 6] was 10/10. The Responders % ([1]; 25 mg cohort, 28-day treatment) was 100%, the “subjects with diarrhea and/or abdominal cramps” value ([1]; cohort 3, blinded treatment (Compound 1 12.5 mg or placebo QD)) was 3 of 12 and the “gastrointestinal AEs” value ([1]; cohort 4 (Compound 1 25 mg or placebo)) was “No gastrointestinal AEs were reported”. The “subjects achieving stopping criterion of ≥20% reduction in LVEF” value ([1]; cohort 4, blinded treatment (Compound 1 25 mg or placebo QD), dosing stopped on Day 25) was 5 of 12, the “AE severity and SAEs” value ([1]; multiple doses up to 25 mg QD) was “All AEs were mild or moderate in severity, and there were no SAEs” and the tolerability ([1]; multiple doses up to 25 mg QD, healthy adults) was “well tolerated”. The “LV filling pressure and diastolic wall stress” value ([2]; 15 mg/day, oHCM patients) was “improvement in LV filling pressure (reduced E/e′) and diastolic wall stress (reduced NTpro-BNP)”, the LVOT gradient ([2]; 15 mg/day, oHCM patients) was “eliminates LVOT gradient” and the “resting LV systolic function” value ([2]; 15 mg/day, oHCM patients) was “decreases resting LV systolic function”. For the same compound, the “resting LVOT gradient” value ([2]; 10, 15 or 20 mg, weeks 0 to 12) was “abolished as early as week 1 in most subjects and by week 2 in all subjects”, the “change in LVEF (stress ejection fraction)” value ([2]; 10 or 15 mg, weeks 0, 4 and 12) was “minimal change” and the “stress LVOT gradient” value ([2]; 10 or 15 mg, weeks 0, 4 and 12) was “abolished”. The “Resting LVEF Week 12” value ([2]; Cohort A (10-15 mg/day), LVEF N = 4, mean ± SD, baseline 70 ± 6) was 54 ± 12%, the “Post-exercise LVEF Week 12” value ([2]; Cohort A (10-15 mg/day), LVEF N = 4, mean ± SD, baseline 76 ± 5) was 60 ± 22% and the “Septal e′ Week 12” value ([2]; Cohort A (10-15 mg/day), N = 10, mean ± SD, baseline 5 4 ± 1 6) was 6.4 ± 1.5 cm/s. The “Mean e′ Week 12” value ([2]; Cohort A (10-15 mg/day), N = 10, mean ± SD, baseline 5.7 ± 1.2) was 7.4 ± 1.6 cm/s, the “Lateral e′ Week 12” value [2, 7] was 8.8 ± 1.6 cm/s and the “E/e′ Week 12” value [2, 7] was 9.1 ± 2.1. For the same compound, the “Resting Gradient Week 12” value ([2]; Cohort A (10-15 mg/day), N = 10, mean ± SD, baseline 68 ± 34) was 14 ± 25 mm Hg, the “Post-exercise Gradient Week 12” value ([2]; Cohort A (10-15 mg/day), N = 10, mean ± SD, baseline 125 ± 60) was 19 ± 13 mm Hg and the “NT-pro BNP Week 12” value ([2]; Cohort A (10-15 mg/day), N = 10, mean ± SD, baseline 939 ± 647) was 235 ± 417 pg/mL. The “E/e′ Delta” value ([2]; Cohort A, baseline to Week 12, n 8) was −3.6 ± 3.7, the “Lateral e′ Delta” value ([2]; Cohort A, baseline to Week 12, n 9) was 1.6 ± 1.9 cm/s and the “Dyspnea score Delta” value [2, 8] was −3.1 ± 1.4. For the same compound, the “LA Vol (index) Delta” value [2, 8] was 1 ± 7 mL/m^2, the “NT-proBNP Delta” value [2, 8] was −459 ± 722 and the “LVEDV Delta” value ([2]; Cohort A, baseline to Week 12, n 11) was 16 ± 21. The “Dyspnea score Week 12” value ([2]; Cohort A, baseline 4.9 ± 1.6, n 10) was 1.7 ± 1.8, the “Lateral e′ Week 12” value ([2]; Cohort A, n 9) was 8.7 ± 1.6 cm/s and the “E/e′ Week 12” value ([2]; Cohort A, n 8) was 9.1 ± 2.2. The “LA Vol (index) Week 12” value ([2]; Cohort A, baseline 30 ± 10, n 10) was 31 ± 8 mL/m^2, the “LVEDV Week 12” value ([2]; Cohort A, baseline 82 ± 24, n 11) was 97 ± 24 and the “NT-proBNP Week 12” value ([2]; Cohort A, baseline 930 ± 647, n 10) was 454 ± 551. For the same compound, the dyspnea symptom score ([2]; Day 1 to Week 16, dosing through week 12) was “improves with Compound 1 administration, returning after cessation of therapy; also recorded: improve”, the “resting LVEF versus Compound 1 concentration” value ([2]; FIG. 8) was “exposure-dependent decrease” and the “increase in exercise capacity (pVO2) versus change in LVEF” value ([2]; FIG. 14) was “greatest in patients with the least decrease in LVEF”. The “oHCM phenotype after cessation (resting LVOT gradient, resting LVEF)” value ([2]; administration stopped after week 12) was “returns after cessation of Compound 1”, the “most robust improvements in pVO2” value ([2]; associated with minimal change in resting LVEF) was over 3 mL/min/kg and the “peak VO2 during CPET” value ([2]; baseline versus week 12) was “improves CPET metric; also recorded: improve”. For the same compound, the “peak circulatory power during CPET” value ([2]; baseline versus week 12) was “improves CPET metric; also recorded: improve”, the tolerability ([2]; doses up to 20 mg QD) was “well tolerated” and the “Compound 1 concentration associated with reduction of resting gradient below hemodynamic significance” value ([2]; plasma) was over 225 ng/mL. For the same compound, the NT-proBNP levels ([2]; weeks 0, 4, 8 and 12) was “reduced after 4 weeks of Compound 1 but can rebound with higher exposures”, the “NYHA Class” value ([2]; with Compound 1 therapy) was “improve” and the “activity against smooth muscle myosin” value [3] was “biochemically inactive”. The “proof of mechanism: cardiac contractility” value [4] was “dependent reduction in cardiac contractility”.
